Measurements reported in patent US20230061736A1, “GPR119 AGONISTS” (Kallyope, Inc., priority 2019, published 2023).

Biological target: T1, human GPR119 (hGPR119) (Homo sapiens, UniProt Q8TDV5)
T1 construct: expressed in transfected cells
T1 sequence (Q8TDV5 1-335): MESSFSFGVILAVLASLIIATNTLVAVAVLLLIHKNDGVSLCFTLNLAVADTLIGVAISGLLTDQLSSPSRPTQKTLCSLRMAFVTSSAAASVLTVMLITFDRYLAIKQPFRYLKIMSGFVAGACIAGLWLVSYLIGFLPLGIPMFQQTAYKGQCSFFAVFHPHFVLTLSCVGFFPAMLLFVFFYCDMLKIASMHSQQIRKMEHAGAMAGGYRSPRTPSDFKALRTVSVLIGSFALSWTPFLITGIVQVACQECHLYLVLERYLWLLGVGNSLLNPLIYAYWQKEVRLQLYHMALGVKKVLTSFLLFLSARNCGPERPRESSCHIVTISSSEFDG
Experiment: cAMP accumulation assay (cAMP Gs dynamic HTRF kit)
Format: cell-based
Conditions: CHO-K1 cells stably expressing hGPR119, 4-parameter fit; for Emax: 1 h, % activity normalized to Max/Min controls; for EC50: cAMP accumulation
Outline: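 CHO-K1 cells stably expressing hGPR119, used as assay-ready frozen stocks at ~10,000 cells/well, exposed to compound dose-response in stimulation buffer with Tween 80 for 60 min at 37° C. cAMP read by HTRF (665/620 nm ratio), normalised to Max/Min controls; EC50 and Max activity from 4-parameter fit.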

| Compound | Emax [%] | EC50 [nM] |
| --- | --- | --- |
| CCc1cnc(N2CCC(CCCOc3cc(F)c(CC(=O)N4CC(CNCC(O)(CO)CO)C4)c(F)c3)CC2)nc1 [Example 67, 1-(3-(((2,3-dihydroxy-2-(hydroxymethyl)propyl)amino)methyl)azetidin-1-yl)-2-(4-(3-(1-(5-ethylpyrimidin-2-yl)piperidin-4-yl)propoxy)-2,6-difluorophenyl)ethan-1-one] | 100 to 130 | ≤ 100 |
| CCc1cnc(N2CCC(CCCOc3cc(F)c(CC(=O)N4CC(CNCCNC(=O)NC(CO)(CO)CO)C4)c(F)c3)CC2)nc1 [Example 68, 1-(1,3-dihydroxy-2-(hydroxymethyl)propan-2-yl)-3-(2-(((1-(2-(4-(3-(1-(5-ethylpyrimidin-2-yl)piperidin-4-yl)propoxy)-2,6-difluorophenyl)acetyl)azetidin-3-yl)methyl)amino)ethyl)urea] | ≥ 130 | ≤ 100 |
| CCCc1cnc(N2CCC(CCCOc3ccc(CC(=O)N4CC(CNCC(CO)CO)C4)c(F)c3)CC2)nc1 [Example 70, 2-(2-fluoro-4-(3-(1-(5-propylpyrimidin-2-yl)piperidin-4-yl)propoxy)phenyl)-1-(3-(((3-hydroxy-2-(hydroxymethyl)propyl)amino)methyl)azetidin-1-yl)ethan-1-one] | 100 to 130 | ≤ 100 |
| CCCc1cnc(N2CCC(CCCOc3ccc(CC(=O)N4CC(CNCC(O)(CO)CO)C4)c(F)c3)CC2)nc1 [Example 71, 1-(3-(((2,3-dihydroxy-2-(hydroxymethyl)propyl)amino)methyl)azetidin-1-yl)-2-(2-fluoro-4-(3-(1-(5-propylpyrimidin-2-yl)piperidin-4-yl)propoxy)phenyl)ethan-1-one] | 100 to 130 | ≤ 100 |
| CCCc1cnc(N2CCC(CCCOc3ccc(CC(=O)N4CC(CNC(CO)(CO)CO)C4)c(F)c3)CC2)nc1 [Example 72, 1-(3-(((1,3-dihydroxy-2-(hydroxymethyl)propan-2-yl)amino)methyl)azetidin-1-yl)-2-(2-fluoro-4-(3-(1-(5-propylpyrimidin-2-yl)piperidin-4-yl)propoxy)phenyl)ethan-1-one] | ≥ 130 | ≤ 100 |
| CCCc1cnc(N2CCC(CCCOc3ccc(CC(=O)N4CC(CNCCNC(=O)NC(CO)(CO)CO)C4)c(F)c3)CC2)nc1 [Example 73, 1-(1,3-dihydroxy-2-(hydroxymethyl)propan-2-yl)-3-(2-(((1-(2-(2-fluoro-4-(3-(1-(5-propylpyrimidin-2-yl)piperidin-4-yl)propoxy)phenyl)acetyl)azetidin-3-yl)methyl)amino)ethyl)urea] | 100 to 130 | 100 to 1000 |
| CCCc1cnc(N2CCC(CCCOc3ccc(CC(=O)N4CC(CNC[C@H](O)[C@@H](O)[C@H](O)[C@H](O)CO)C4)c(F)c3)CC2)nc1 [Example 74, 2-(2-fluoro-4-(3-(1-(5-propylpyrimidin-2-yl)piperidin-4-yl)propoxy)phenyl)-1-(3-((((2S,3R,4R,5R)-2,3,4,5,6-pentahydroxyhexyl)amino)methyl)azetidin-1-yl)ethan-1-one] | ≥ 130 | 100 to 1000 |
| CCCc1cnc(N2CCC(CCCOc3cc(F)c(CC(=O)N4CC(CNCC(O)(CO)CO)C4)c(F)c3)CC2)nc1 [Example 75, 2-(2,6-difluoro-4-(3-(1-(5-propylpyrimidin-2-yl)piperidin-4-yl)propoxy)phenyl)-1-(3-(((2,3-dihydroxy-2-(hydroxymethyl)propyl)amino)methyl)azetidin-1-yl)ethan-1-one] | 100 to 130 | ≤ 100 |
| CCCc1cnc(N2CCC(CCCOc3cc(F)c(CC(=O)N4CC(CNC(CO)(CO)CO)C4)c(F)c3)CC2)nc1 [Example 76, 2-(2,6-difluoro-4-(3-(1-(5-propylpyrimidin-2-yl)piperidin-4-yl)propoxy)phenyl)-1-(3-(((1,3-dihydroxy-2-(hydroxymethyl)propan-2-yl)amino)methyl)azetidin-1-yl)ethan-1-one] | ≥ 130 | ≤ 100 |
| CCCc1cnc(N2CCC(CCCOc3cc(F)c(CC(=O)N4CC(CNCCNC(=O)NC(CO)(CO)CO)C4)c(F)c3)CC2)nc1 [Example 77, 1-(2-(((1-(2-(2,6-difluoro-4-(3-(1-(5-propylpyrimidin-2-yl)piperidin-4-yl)propoxy)phenyl)acetyl)azetidin-3-yl)methyl)amino)ethyl)-3-(1,3-dihydroxy-2-(hydroxymethyl)propan-2-yl)urea] | ≥ 130 | 100 to 1000 |
| CCCc1cnc(N2CCC(CCCOc3cc(F)c(CC(=O)N4CC(CNC[C@H](O)[C@@H](O)[C@H](O)[C@H](O)CO)C4)c(F)c3)CC2)nc1 [Example 78, 2-(2,6-difluoro-4-(3-(1-(5-propylpyrimidin-2-yl)piperidin-4-yl)propoxy)phenyl)-1-(3-((((2S,3R,4R,5R)-2,3,4,5,6-pentahydroxyhexyl)amino)methyl)azetidin-1-yl)ethan-1-one] | 100 to 130 | ≤ 100 |
| COCc1cnc(N2CCC(CCCOc3ccc(CC(=O)N4CC(CNCCNC(=O)NC(CO)(CO)CO)C4)c(F)c3)CC2)nc1 [Example 81, 1-[2-[[1-[2-[2-fluoro-4-[3-[1-[5-(methoxymethyl)pyrimidin-2-yl]-4-piperidyl]propoxy]phenyl]acetyl]azetidin-3-yl]methylamino]ethyl]-3-[2-hydroxy-1,1-bis(hydroxymethyl)ethyl]urea] | 100 to 130 | – |
| COCc1cnc(N2CCC(CCCOc3ccc(CC(=O)N4CC(CNCC[C@@H](O)C[C@@H](O)CC(=O)O)C4)c(F)c3)CC2)nc1 [Example 82, (3R,5R)-7-[[1-[2-[2-fluoro-4-[3-[1-[5-(methoxymethyl)pyrimidin-2-yl]-4-piperidyl]propoxy]phenyl]acetyl]azetidin-3-yl]methylamino]-3,5-dihydroxy-heptanoicacid] | 50 to 100 | 100 to 1000 |
| COC(=O)c1cnc(N2CCC(CCCOc3ccc(CC(=O)N4CC(CNC[C@H](O)[C@@H](O)[C@H](O)[C@H](O)CO)C4)c(F)c3)CC2)nc1 [Example 87, methyl 2-[4-[3-[3-fluoro-4-[2-oxo-2-[3-[[[(2S,3R,4R,5R)-2,3,4,5,6-pentahydroxyhexyl]amino]methyl]azetidin-1-yl]ethyl]phenoxy]propyl]-1-piperidyl]pyrimidine-5-carboxylate] | 100 to 130 | 100 to 1000 |
| CCc1cnc(N2CCC(CCOCc3ccc(CC(=O)N4CC(CNC[C@@H](O)[C@H](O)[C@@H](O)[C@@H](O)CO)C4)c(F)c3)CC2)nc1 [Example 88] | 50 to 100 | 1000 to 10000 |
| CCc1cnc(N2CCC(CCOCc3ccc(CC(=O)N4CC(CNC[C@H](O)[C@@H](O)[C@H](O)[C@H](O)CO)C4)cc3F)CC2)nc1 [Example 89] | 50 to 100 | 1000 to 10000 |
| O=C(Cc1ccc(COCCCC2CCN(c3ncc(Cl)cn3)CC2)cc1F)N1CC(CNC[C@H](O)[C@@H](O)[C@H](O)[C@H](O)CO)C1 [Example 90, 2-[4-[3-[1-(5-chloropyrimidin-2-yl)-4-piperidyl]propoxymethyl]-2-fluoro-phenyl]-1-[3-[[[(2S,3R,4R,5R)-2,3,4,5,6-pentahydroxyhexyl]amino]methyl]azetidin-1-yl]ethanone] | 50 to 100 | 100 to 1000 |
| O=C(Cc1ccc(OCCCC2CCN(c3ncc(CO)cn3)CC2)cc1F)N1CC(CNC[C@H](O)[C@@H](O)[C@H](O)[C@H](O)CO)C1 [Example 93, 2-[2-fluoro-4-[3-[1-[5-(hydroxymethyl)pyrimidin-2-yl]-4-piperidyl]propoxy]phenyl]-1-[3-[[[(2S,3R,4R,5R)-2,3,4,5,6-pentahydroxyhexyl]amino]methyl]azetidin-1-yl]ethanone] | 50 to 100 | 1000 to 10000 |
| COCc1cnc(N2CCC(CCCOc3cc(F)c(CC(=O)N4CC(CNC[C@H](O)[C@@H](O)[C@H](O)[C@H](O)CO)C4)c(F)c3)CC2)nc1 [Example 94, 2-(2,6-difluoro-4-(3-(1-(5-(methoxymethyl)pyrimidin-2-yl)piperidin-4-yl)propoxy)phenyl)-1-(3-((((2S,3R,4R,5R)-2,3,4,5,6-pentahydroxyhexyl)amino)methyl)azetidin-1-yl)ethan-1-one] | 100 to 130 | 100 to 1000 |
| COCc1cnc(N2CCC([C@H]3C[C@H]3COCc3ccc(CC(=O)N4CC(CNC[C@H](O)[C@@H](O)[C@H](O)[C@H](O)CO)C4)c(F)c3)CC2)nc1 [Example 96, 2-[2-fluoro-4-[[(1R,2R)-2-[1-[5-(methoxymethyl)pyrimidin-2-yl]-4-piperidyl]cyclopropyl]methoxymethyl]phenyl]-1-[3-[[[(2S,3R,4R,5R)-2,3,4,5,6-pentahydroxyhexyl]amino]methyl]azetidin-1-yl]ethanone] | 100 to 130 | 100 to 1000 |
| O=C(Cc1ccc(OCCCC2CCN(c3ncc(Cl)cn3)CC2)cc1F)N1CC[C@@H](CNC[C@H](O)[C@@H](O)[C@H](O)[C@H](O)CO)C1 [Example 98, 2-[4-[3-[1-(5-chloropyrimidin-2-yl)-4-piperidyl]propoxy]-2-fluoro-phenyl]-1-[(3S)-3-[[[(2S,3R,4R,5R)-2,3,4,5,6-pentahydroxyhexyl]amino]methyl]pyrrolidin-1-yl]ethanone] | 100 to 130 | ≤ 100 |
| O=C(Cc1ccc(OCCCC2CCN(c3ncc(Cl)cn3)CC2)cc1F)N1CC[C@@H](CNCC(O)(CO)CO)C1 [Example 99, 2-[4-[3-[1-(5-chloropyrimidin-2-yl)-4-piperidyl]propoxy]-2-fluoro-phenyl]-1-[(3S)-3-[[[2,3-dihydroxy-2-(hydroxymethyl)propyl]amino]methyl]pyrrolidin-1-yl]ethanone] | ≥ 130 | ≤ 100 |
